Measurements from ChEMBL document CHEMBL4229455, “Synthesis and anticancer activity of novel bisindolylhydroxymaleimide derivatives with potent GSK-3 kinase inhibition” (Bioorg Med Chem, 2018).

Tests used:
[1] = target: CDK9/cyclin T1 (Homo sapiens) (UniProt O60563+P50750); experiment: Inhibition of recombinant full length human CDK9/cyclin T expressed in baculovirus infected Sf9 insect cells assessed as residual activity at 10 uM using YSPTSPSYSPTSPSYSPTSPSKKKK as substrate in presence of [gamma-33P]ATP
[2] = target: Glycogen synthase kinase-3 (Sus scrofa) (UniProt B2LUN4+I6LNT8); experiment: Inhibition of domestic porcine brain full length GSK-3alpha/beta assessed as residual activity at 10 uM using GS-1 as substrate in presence of [gamma-33P]ATP; conditions: Sus scrofa domesticus
OVCAR-8 [3] = experiment: Cytotoxicity against human OVCAR8 cells assessed as cell growth at 10 uM after 48 hrs by SRB assay relative to control; format: functional; conditions: OVCAR-8, 48 h, read-out: Activity
SF-295 [4] = experiment: Cytotoxicity against human SF295 cells assessed as cell growth at 10 uM after 48 hrs by SRB assay relative to control; format: functional; conditions: SF-295, 48 h, read-out: Activity
PC-3 = experiment: Cytotoxicity against human PC3 cells assessed as cell growth at 10 uM after 48 hrs by SRB assay relative to control; format: functional; conditions: PC-3, 48 h, read-out: Activity
SF-295 [5] = experiment: Cytotoxicity against human SF295 cells assessed as cell growth at 0.1 uM after 48 hrs by SRB assay relative to control; format: functional; conditions: SF-295, 48 h, read-out: Activity
Malme-3M = experiment: Cytotoxicity against human MALME-3M cells assessed as cell growth at 100 uM after 48 hrs by SRB assay relative to control; format: functional; conditions: read-out: Activity
IGROV-1 = experiment: Cytotoxicity against human IGROV1 cells assessed as cell growth at 10 uM after 48 hrs by SRB assay relative to control; format: functional; conditions: IGROV-1, 48 h, read-out: Activity
CDK9/cyclin T1 = CDK9/cyclin T1 (Homo sapiens, UniProt P50750); experiment: Inhibition of recombinant full length human CDK9/cyclin T expressed in baculovirus infected Sf9 insect cells using YSPTSPSYSPTSPSYSPTSPSKKKK as substrate in presence of [gamma-33P]ATP
Sequence of CDK9/cyclin T1 (O60563 whole entry): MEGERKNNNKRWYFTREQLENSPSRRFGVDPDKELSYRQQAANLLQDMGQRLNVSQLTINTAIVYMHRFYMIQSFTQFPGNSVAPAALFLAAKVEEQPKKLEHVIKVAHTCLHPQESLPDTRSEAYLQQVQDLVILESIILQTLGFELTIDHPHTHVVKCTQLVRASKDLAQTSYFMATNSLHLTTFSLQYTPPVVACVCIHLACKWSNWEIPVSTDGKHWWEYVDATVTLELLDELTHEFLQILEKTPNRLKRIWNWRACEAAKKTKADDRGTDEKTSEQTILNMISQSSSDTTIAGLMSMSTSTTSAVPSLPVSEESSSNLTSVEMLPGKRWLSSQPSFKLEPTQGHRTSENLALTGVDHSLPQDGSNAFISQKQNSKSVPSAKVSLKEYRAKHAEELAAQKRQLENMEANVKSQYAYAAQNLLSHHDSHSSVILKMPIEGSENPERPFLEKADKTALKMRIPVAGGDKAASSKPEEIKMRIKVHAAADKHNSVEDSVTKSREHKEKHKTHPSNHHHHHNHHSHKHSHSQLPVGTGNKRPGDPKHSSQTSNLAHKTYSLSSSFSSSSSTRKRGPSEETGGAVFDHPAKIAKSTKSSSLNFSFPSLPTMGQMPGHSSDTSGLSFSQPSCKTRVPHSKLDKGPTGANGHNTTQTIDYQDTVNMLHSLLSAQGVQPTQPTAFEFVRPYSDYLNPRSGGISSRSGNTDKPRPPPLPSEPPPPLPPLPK
Sequence of CDK9/cyclin T1 (P50750 whole entry): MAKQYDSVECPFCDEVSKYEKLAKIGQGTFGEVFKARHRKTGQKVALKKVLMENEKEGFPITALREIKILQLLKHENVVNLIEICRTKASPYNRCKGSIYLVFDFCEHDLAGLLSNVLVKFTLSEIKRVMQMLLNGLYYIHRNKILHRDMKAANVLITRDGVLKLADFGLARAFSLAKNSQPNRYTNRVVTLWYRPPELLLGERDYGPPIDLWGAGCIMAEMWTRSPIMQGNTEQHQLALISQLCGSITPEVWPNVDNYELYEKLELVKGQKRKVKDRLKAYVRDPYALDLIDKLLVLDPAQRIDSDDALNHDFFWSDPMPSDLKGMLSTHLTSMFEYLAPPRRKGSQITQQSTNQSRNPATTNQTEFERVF

SR = experiment: Cytotoxicity against human SR cells after 48 hrs by SRB assay; format: functional
KM12 = experiment: Cytotoxicity against human KM12 cells assessed as cell growth at 10 uM after 48 hrs by SRB assay relative to control; format: functional; conditions: KM12, 48 h, read-out: Activity
HCT-116 = experiment: Cytotoxicity against human HCT116 cells assessed as cell growth at 10 uM after 48 hrs by SRB assay relative to control; format: functional; conditions: HCT-116, 48 h, read-out: Activity
NCI-H522 = experiment: Cytotoxicity against human NCI-H522 cells assessed as cell growth at 10 uM after 48 hrs by SRB assay relative to control; format: functional; conditions: NCI-H522, 48 h, read-out: Activity
SK-MEL-2 = experiment: Cytotoxicity against human SK-MEL-2 cells assessed as cell growth at 1 uM after 48 hrs by SRB assay relative to control; format: functional; conditions: SK-MEL-2, 48 h, read-out: Activity
OVCAR-8 [6] = experiment: Cytotoxicity against human OVCAR8 cells assessed as cell growth at 0.01 uM after 48 hrs by SRB assay relative to control; format: functional; conditions: OVCAR-8, 48 h, read-out: Activity
OVCAR-5 = experiment: Cytotoxicity against human OVCAR5 cells assessed as cell growth at 10 uM after 48 hrs by SRB assay relative to control; format: functional; conditions: OVCAR-5, 48 h, read-out: Activity
UACC-62 = experiment: Cytotoxicity against human UACC62 cells assessed as cell growth at 10 uM after 48 hrs by SRB assay relative to control; format: functional; conditions: UACC-62, 48 h, read-out: Activity
SK-OV-3 = experiment: Cytotoxicity against human SKOV3 cells after 48 hrs by SRB assay; format: functional; conditions: SK-OV-3, 48 h
SF-539 = experiment: Cytotoxicity against human SF539 cells assessed as cell growth at 100 uM after 48 hrs by SRB assay relative to control; format: functional; conditions: SF-539, 48 h, read-out: Activity
SW-620 = experiment: Cytotoxicity against human SW620 cells after 48 hrs by SRB assay; format: functional; conditions: SW-620, 48 h
[7] = target: Receptor-interacting serine/threonine-protein kinase 3 (Homo sapiens, UniProt Q9Y572); experiment: Inhibition of recombinant full length human RIPK3 expressed in baculovirus infected Sf9 insect cells using MBP as substrate in presence of [gamma-33P]ATP
Sequence of Receptor-interacting serine/threonine-protein kinase 3 (Q9Y572 whole entry): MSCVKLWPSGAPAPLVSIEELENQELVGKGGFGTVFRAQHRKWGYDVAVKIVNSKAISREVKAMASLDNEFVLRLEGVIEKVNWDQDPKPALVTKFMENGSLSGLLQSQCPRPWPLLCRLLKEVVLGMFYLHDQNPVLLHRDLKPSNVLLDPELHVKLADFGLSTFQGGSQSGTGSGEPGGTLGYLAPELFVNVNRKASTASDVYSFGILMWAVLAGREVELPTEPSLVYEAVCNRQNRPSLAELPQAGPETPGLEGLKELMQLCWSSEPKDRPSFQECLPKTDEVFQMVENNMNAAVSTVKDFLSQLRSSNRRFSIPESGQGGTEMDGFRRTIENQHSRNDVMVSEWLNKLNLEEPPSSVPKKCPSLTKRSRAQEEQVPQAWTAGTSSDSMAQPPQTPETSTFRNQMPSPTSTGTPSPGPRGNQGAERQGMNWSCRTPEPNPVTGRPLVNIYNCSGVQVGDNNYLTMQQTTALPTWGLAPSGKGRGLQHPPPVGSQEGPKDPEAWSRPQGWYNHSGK

OVCAR-4 = experiment: Cytotoxicity against human OVCAR4 cells assessed as cell growth at 10 uM after 48 hrs by SRB assay relative to control; format: functional; conditions: OVCAR-4, 48 h, read-out: Activity
SK-MEL-28 = experiment: Cytotoxicity against human SK-MEL-28 cells after 48 hrs by SRB assay; format: functional; conditions: SK-MEL-28, 48 h
Sus scrofa domesticus = organism: Sus scrofa domesticus; experiment: Inhibition of domestic porcine brain full length […] assessed as residual activity at 10 uM using RRKHAAIGSpAYSITA as substrate in presence of [gamma-33P]ATP
EKVX = experiment: Cytotoxicity against human EKVX cells assessed as cell growth at 10 uM after 48 hrs by SRB assay relative to control; format: functional; conditions: read-out: Activity
[8] = target: Serine/threonine-protein kinase pim-1 (Homo sapiens, UniProt P11309); experiment: Inhibition of recombinant full length human PIM1 expressed in bacteria assessed as residual activity at 10 uM using histone H1 as substrate in presence of [gamma-33P]ATP
Sequence of Serine/threonine-protein kinase pim-1 (P11309 whole entry, looked up): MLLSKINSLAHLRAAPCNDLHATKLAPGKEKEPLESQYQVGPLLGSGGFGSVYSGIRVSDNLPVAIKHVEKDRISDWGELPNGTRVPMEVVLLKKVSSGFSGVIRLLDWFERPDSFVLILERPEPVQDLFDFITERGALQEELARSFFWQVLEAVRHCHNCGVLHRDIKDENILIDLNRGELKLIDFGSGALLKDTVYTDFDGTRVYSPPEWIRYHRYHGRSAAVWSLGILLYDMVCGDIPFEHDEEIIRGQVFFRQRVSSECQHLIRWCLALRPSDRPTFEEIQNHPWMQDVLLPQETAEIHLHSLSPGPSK

Hs-578T = experiment: Cytotoxicity against human Hs 578T cells assessed as cell growth at 100 uM after 48 hrs by SRB assay relative to control; format: functional; conditions: read-out: Activity
U-251 = experiment: Cytotoxicity against human U251 cells assessed as cell growth at 10 uM after 48 hrs by SRB assay relative to control; format: functional; conditions: U-251, 48 h, read-out: Activity
SF-268 = experiment: Cytotoxicity against human SF268 cells assessed as cell growth at 100 uM after 48 hrs by SRB assay relative to control; format: functional; conditions: SF-268, 48 h, read-out: Activity
CAKI-1 = experiment: Cytotoxicity against human Caki1 cells assessed as cell growth at 1 uM after 48 hrs by SRB assay relative to control; format: functional; conditions: CAKI-1, 48 h, read-out: Activity
ACHN = experiment: Cytotoxicity against human ACHN cells assessed as cell growth at 10 uM after 48 hrs by SRB assay relative to control; format: functional; conditions: read-out: Activity
UACC-257 = experiment: Cytotoxicity against human UACC257 cells assessed as cell growth at 10 uM after 48 hrs by SRB assay relative to control; format: functional; conditions: UACC-257, 48 h, read-out: Activity
SK-MEL-5 = experiment: Cytotoxicity against human SK-MEL-5 cells assessed as cell growth at 10 uM after 48 hrs by SRB assay relative to control; format: functional; conditions: SK-MEL-5, 48 h, read-out: Activity
NCI-H322M = experiment: Cytotoxicity against human NCI-H322M cells assessed as cell growth at 10 uM after 48 hrs by SRB assay relative to control; format: functional; conditions: read-out: Activity

`Cn1cc(C2=C(c3cn(C)c4ncccc34)C(=O)NC2=O)c2ccccc21` was tested, and the Activity [1] was -10%, the Activity [2] was -21% and the growth at 10 µM (OVCAR-8 [3]) was 23 to 53.8%. It also gave a growth at 10 µM (SF-295 [4]) of 9.52%, a growth at 10 µM (PC-3) of 23 to 44.6% and a growth at 0.1 µM (SF-295 [5]) of 93%. The growth at 100 µM (Malme-3M) was -11%, the growth at 10 µM (IGROV-1) was 8 to 70.8% and the IC50 (CDK9/cyclin T1) was 0.08 µM. The GI50 (SR) was 1.04 µM, the TGI (SR) was 18.4 µM and the growth at 10 µM (KM12) was 8.78 to 12%. It also gave a growth at 10 µM (HCT-116) of 15 to 21.9%, a growth at 10 µM (NCI-H522) of 14.3 to 32% and a growth at 1 µM (SK-MEL-2) of 111%. For the same molecule, the growth at 0.01 µM (OVCAR-8 [6]) was 105%, the growth at 10 µM (OVCAR-5) was 13 to 54.6% and the growth at 10 µM (UACC-62) was 27 to 36.6%. The GI50 (SK-OV-3) was 2.09 µM, the TGI (SK-OV-3) was 8 µM and the growth at 100 µM (SF-539) was -64%. It also gave a GI50 (SW-620) of 3.61 µM, a TGI (SW-620) of 32.6 µM and an IC50 [7] greater than 10 µM. For the same molecule, the growth at 10 µM (OVCAR-4) was 34 to 59%, the GI50 (SK-MEL-28) was 3.05 µM and the TGI (SK-MEL-28) was 17.7 µM. The Activity (Sus scrofa domesticus) was 76%, the growth at 10 µM (EKVX) was 9 to 62.7% and the Activity [8] was 1%. For the same molecule, the growth at 100 µM (Hs-578T) was -37%, the growth at 10 µM (U-251) was 27% and the growth at 100 µM (SF-268) was -12%. It also gave a growth at 1 µM (CAKI-1) of 54%, a growth at 10 µM (ACHN) of 8 to 26.5% and a growth at 10 µM (UACC-257) of 35 to 84.8%.

Work on `N#CCCCCCn1cc(C2=C(c3cn(CCCCCC#N)c4ccccc34)C(=O)N(O)C2=O)c2ccccc21` yielded an Activity [1] of 55%, an Activity [2] of 5% and a growth at 10 µM (OVCAR-8 [3]) of 55 to 87.6%. For the same molecule, the growth at 10 µM (SF-295 [4]) was 35 to 85%, the growth at 10 µM (PC-3) was 29 to 70.3% and the growth at 0.1 µM (SF-295 [5]) was 91%. For the same molecule, the growth at 100 µM (Malme-3M) was -14%, the growth at 10 µM (IGROV-1) was 28 to 66.8% and the IC50 (CDK9/cyclin T1) was greater than 10 µM. The GI50 (SR) was 3.55 µM, the LC50 (SR) was greater than 100 µM and the TGI (SR) was 9.48 µM. The growth at 10 µM (KM12) was 25 to 65.7%, the growth at 10 µM (HCT-116) was 21 to 63.3% and the growth at 10 µM (NCI-H522) was 1 to 54.9%. It also gave a growth at 1 µM (SK-MEL-2) of 97%, a growth at 0.01 µM (OVCAR-8 [6]) of 99% and a growth at 10 µM (OVCAR-5) of 95 to 106%. It also gave a growth at 10 µM (UACC-62) of 14 to 53.3%, a GI50 (SK-OV-3) of 7.78 µM and an LC50 (SK-OV-3) greater than 100 µM. The TGI (SK-OV-3) was greater than 100 µM, the growth at 100 µM (SF-539) was -36% and the GI50 (SW-620) was 4.76 µM. The LC50 (SW-620) was greater than 100 µM, the TGI (SW-620) was greater than 100 µM and the IC50 [7] was greater than 10 µM. The growth at 10 µM (OVCAR-4) was 91.6%, the GI50 (SK-MEL-28) was 6.07 µM and the LC50 (SK-MEL-28) was greater than 100 µM. For the same molecule, the TGI (SK-MEL-28) was greater than 100 µM, the Activity (Sus scrofa domesticus) was 67% and the Activity [8] was 78%. It also gave a growth at 100 µM (Hs-578T) of 5%, a growth at 10 µM (U-251) of 25 to 82.2% and a growth at 100 µM (SF-268) of 8%. For the same molecule, the growth at 1 µM (CAKI-1) was 93%, the growth at 10 µM (ACHN) was 45 to 81.7% and the growth at 10 µM (SK-MEL-5) was 2 to 39.4%. The growth at 10 µM (UACC-257) was 56 to 82.1% and the growth at 10 µM (NCI-H322M) was 45 to 92.3%.
